Experimental data reported in US7759344B2, “Bis-aryl amide derivatives and methods of use” (priority 2007, dated 2010).
pKi: −log10 of the molar value.

Target: T1, c-Met (Homo sapiens, UniProt P08581)
T1 construct: A PCR product covering residues 1058-1365 of c-Met (c-Met kinase domain) is generated; made in house; host or cells: Baculovirus cells (baculovirus/insect-cell expression)
Assay: c-Met Receptor Assay (HTRF kinase assay with GST-cMet (P) enzyme, gastrin and ATP)
Assay type: biochemical
Method: Cloning, Expression and Purification of c-Met Kinase Domain
Alternative purification of human GST-cMET from Baculovirus cells
The resin is washed with 10 column volumes (100 mL) of Lysis Buffer. […] The elution is collected as 15 mL fractions. Aliquots of the elution fractions are run on SDS PAGE (12% Tris Glycine gel, Invitrogen, #EC6005BOX). The gel is stained with 0.25% Coomassie Blue stain. Fractions with GST-cMET are concentrated with a Vivaspin 20 mL Concentrator (#VS2002; […]) to a final volume less than 2.0 ml. […] The GST-cMET is eluted with an isocratic run of the above buffer, with the eluent collected in 1.0 mL fractions. Fractions with significant OD280 readings are run on another 12% Tris Glycine gel. The peak tubes with GST-cMET are pooled and the OD280 is read with the column buffer listed above as the blank buffer. • Phosphorylation of the purified GST-cMET is performed by incubating the protein for 3 h at RT with the following:
After incubation, the solution is concentrated in a Vivaspin 20 ml Concentrator to a volume less than 2.00 ml. The solution is applied to the same Superdex 75 16/60 column used above after re-equilibration. The GST-cMET is eluted as described above. The elution fractions corresponding to the first eluted peak on the chromatogram are run on a 12% Tris Glycine gel, as above, to identify the fractions with GST-cMET. Fractions are pooled and the OD280 is read with the column buffer used as the blank.
A Kinase reaction Buffer is prepared as follows:
When the assay is carried out, freshly add:
The HTRF Buffer Contains: • 50 mM Tris-HCl (pH 7.5), 100 mM NaCl, 0.1% BSA, 0.05% Tween 20,5mM EDTA
Dilute GST-cMet (P) Enzyme in Kinase Buffer as Follows:
2. Assay Plate Preparation:
Then incubate the plate at RT for 30 min.
3. Prepare Gastrin and ATP working solution in kinase reaction buffer as follows:
Use Biomek FX to add 20 μl ATP and Gastrin working solution to the assay plate to start reaction, incubate the plate at RT for 1 h. 4. Transfer 5 μL reaction product at the end of 1 h into 80 μL HTRF buffer in black plate

T1 sequence (P08581 1058-1365): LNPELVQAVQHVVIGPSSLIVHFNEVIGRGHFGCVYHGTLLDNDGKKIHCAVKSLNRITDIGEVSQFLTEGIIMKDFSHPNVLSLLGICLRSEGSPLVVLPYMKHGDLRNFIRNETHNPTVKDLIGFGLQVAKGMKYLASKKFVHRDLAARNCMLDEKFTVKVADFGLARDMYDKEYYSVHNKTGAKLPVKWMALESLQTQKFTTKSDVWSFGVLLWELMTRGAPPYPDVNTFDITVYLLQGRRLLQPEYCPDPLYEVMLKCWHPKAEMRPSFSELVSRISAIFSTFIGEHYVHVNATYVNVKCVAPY

| Structure (SMILES) | pKi |
| --- | --- |
| Cc1c(C(=O)Nc2ccc(-c3cccc4c(NCCN(C)C)nccc34)cc2)c(=O)n(-c2ccccc2)n1CC(C)(C)O [Example 14, N-(4-(1-(2-(dimethylamino)ethylamino)isoquinolin-5-yl)phenyl)-1-(2-hydroxy-2-methylpropyl)-5-methyl-3-oxo-2-phenyl-2,3-dihydro-1H-pyrazole-4-carboxamide] | < 4.70 |
| Cc1c(C(=O)Nc2ccc(-c3nncc4cnccc34)c(F)c2)c(=O)n(-c2ccccc2)n1C [Example 9, N-(3-fluoro-4-pyrido[3,4-d]pyridazin-1-ylphenyl)-1,5-dimethyl-3-oxo-2-phenyl-2,3-dihydro-1H-pyrazole-4-carboxamide] | 5.62 |
| Cc1c(C(=O)Nc2ccc(-c3cccc4c(N(C)CCCN(C)C)nccc34)cc2)c(=O)n(-c2ccccc2)n1CC(C)(C)O [Example 16, N-(4-(1-((3-(dimethylamino)propyl)(methyl)amino)isoquinolin-5-yl)phenyl)-1-(2-hydroxy-2-methylpropyl)-5-methyl-3-oxo-2-phenyl-2,3-dihydro-1H-pyrazole-4-carboxamide] | 5.84 |
| Cc1c(C(=O)Nc2ccc(-c3cccc4[nH]nc(N)c34)c(F)c2)c(=O)n(-c2ccccc2)n1C [Example 1, N-(4-(3-amino-1H-indazol-4-yl)-3-fluorophenyl)-1,5-dimethyl-3-oxo-2-phenyl-2,3-dihydro-1H-pyrazole-4-carboxamide] | 7.68 |
| Cc1c(C(=O)Nc2ccc(-c3cccc4[nH]nc(N)c34)cc2)c(=O)n(-c2ccccc2)n1CC(C)(C)O [Example 8, N-(4-(3-amino-1H-indazol-4-yl)phenyl)-1-(2-hydroxy-2-methylpropyl)-5-methyl-3-oxo-2-phenyl-2,3-dihydro-1H-pyrazole-4-carboxamide] | 6.60 |
| Cc1c(C(=O)Nc2ccc(-c3cccc4c(NCCCN5CCOCC5)nccc34)cc2)c(=O)n(-c2ccccc2)n1CC(C)(C)O [Example 13, 1-(2-hydroxy-2-methylpropyl)-5-methyl-N-(4-(1-(3-morpholinopropylamino)-isoquinolin-5-yl)phenyl)-3-oxo-2-phenyl-2,3-dihydro-1H-pyrazole-4-carboxamide] | 5.48 |
| Cc1c(C(=O)Nc2ccc(-c3cccc4c(N(C)CCN(C)C)nccc34)cc2)c(=O)n(-c2ccccc2)n1CC(C)(C)O [Example 15, N-(4-(1-((2-(dimethylamino)ethyl)(methyl)amino)isoquinolin-5-yl)phenyl)-1-(2-hydroxy-2-methylpropyl)-5-methyl-3-oxo-2-phenyl-2,3-dihydro-1H-pyrazole-4-carboxamide] | < 5.18 |

Results, then the compound that gave them:

| pKi | Structure (SMILES) |
| --- | --- |
| 7.25 | Cc1c(C(=O)Nc2ccc(-c3cccc4c(N)nccc34)c(F)c2)c(=O)n(-c2ccccc2)n1CC(C)(C)O [Example 3, N-(4-(1-amino-5-isoquinolinyl)-3-fluorophenyl)-1-(2-hydroxy-2-methylpropyl)-5-methyl-3-oxo-2-phenyl-2,3-dihydro-1H-pyrazole-4-carboxamide] |
| 7.21 | Cc1c(C(=O)Nc2ccc(-c3cccc4cnccc34)c(F)c2)c(=O)n(-c2ccccc2)n1C[C@@H](C)O [Example 12, N-(3-fluoro-4-(isoquinolin-5-yl)phenyl)-1-((R)-2-hydroxypropyl)-5-methyl-3-oxo-2-phenyl-2,3-dihydro-1H-pyrazole-4-carboxamide] |
| 7.55 | Cc1c(C(=O)Nc2ccc(-c3cccc4c(N)nccc34)c(F)c2)c(=O)n(-c2ccccc2)n1C [Example 2, N-(4-(1-amino-5-isoquinolinyl)-3-fluorophenyl)-1,5-dimethyl-3-oxo-2-phenyl-2,3-dihydro-1H-pyrazole-4-carboxamide] |
| 6.43 | Cc1cc(NC(=O)c2c(C)n(CC(C)(C)O)n(-c3ccccc3)c2=O)ccc1-c1cccc2cnccc12 [Example 10, 1-(2-Hydroxy-2-methylpropyl)-N-(4-(5-isoquinolinyl)-3-methylphenyl)-5-methyl-3-oxo-2-phenyl-2,3-dihydro-1H-pyrazole-4-carboxamide] |
| 6.81 | Cc1c(C(=O)Nc2ccc(-c3cccc4cnccc34)cc2F)c(=O)n(-c2ccccc2)n1CC(C)(C)O [Example 7, N-(2-fluoro-4-(5-isoquinolinyl)phenyl)-1-(2-hydroxy-2-methylpropyl)-5-methyl-3-oxo-2-phenyl-2,3-dihydro-1H-pyrazole-4-carboxamide] |
| 7.14 | Cc1c(C(=O)Nc2ccc(-c3cccc4cnccc34)c(F)c2)c(=O)n(-c2ccccc2)n1C [Example 4, N-(3-fluoro-4-(5-isoquinolinyl)phenyl)-1,5-dimethyl-3-oxo-2-phenyl-2,3-dihydro-1H-pyrazole-4-carboxamide] |
| 7.33 | Cc1c(C(=O)Nc2ccc(-c3cccc4cnccc34)c(F)c2)c(=O)n(-c2ccccc2)n1C[C@H](C)O [Example 11, N-(3-fluoro-4-(isoquinolin-5-yl)phenyl)-1-((S)-2-hydroxypropyl)-5-methyl-3-oxo-2-phenyl-2,3-dihydro-1H-pyrazole-4-carboxamide] |
| 6.85 | Cc1c(C(=O)Nc2ccc(-c3cccc4cnccc34)c(F)c2)c(=O)n(-c2ccccc2)n1CC(C)(C)O [Example 6, N-(3-fluoro-4-(5-isoquinolinyl)phenyl)-1-(2-hydroxy-2-methylpropyl)-5-methyl-3-oxo-2-phenyl-2,3-dihydro-1H-pyrazole-4-carboxamide] |
| 7.07 | Cc1c(C(=O)Nc2ccc(-c3cccc4[nH]nc(N)c34)c(F)c2)c(=O)n(-c2ccccc2)n1CC(C)(C)O [Example 5, N-(4-(3-amino-1H-indazol-4-yl)-3-fluorophenyl)-1-(2-hydroxy-2-methylpropyl)-5-methyl-3-oxo-2-phenyl-2,3-dihydro-1H-pyrazole-4-carboxamide] |
